According to publication PMC5224920, “Assessing the mechanism and therapeutic potential of modulators of the human Mediator complex-associated protein kinases” (eLife, 2016):

Test system: 12 single or co-culture in vitro tissue models of primary cells
Experiment: Culture/co-culture cell model panel, extracellular biomarkers (DiscoveRx); for CCL2/MCP-1: reference of the scale not given here; for CD38: reference of the scale not given here; for CD40: reference of the scale not given here; for CD69: reference of the scale not given here; for CXCL8/IL-8: reference of the scale not given here; for CXCL9/MIG: reference of the scale not given here; for IL-1alpha: reference of the scale not given here; for M-CSF: reference of the scale not given here; for PBMC Cytotoxicity: reference of the scale not given here
Format: cell-based, human
[1] = /Mphg Huvec+macrophages, 1.00E4 nM
[2] = /Mphg Huvec+macrophages, 1.11E3 nM
[3] = /Mphg Huvec+macrophages, 1.23E2 nM
[4] = /Mphg Huvec+macrophages, 1.37E1 nM
[5] = /Mphg Huvec+macrophages, 3.33E3 nM
[6] = /Mphg Huvec+macrophages, 3.70E2 nM
[7] = /Mphg Huvec+macrophages, 4.12E1 nM
[8] = /Mphg Huvec+macrophages, 4.57E0 nM

## Cc1n[nH]c2ncc(C(=O)N3CCC[C@H]3c3ccc(Cl)cc3)cc12 [CMPD4]
/HDFNo, 4.57E0 nM
  Collagen I: -0.029
  Collagen III: 0.064
[1]
  CCL2/MCP-1: -0.014
  CCL3/MIP-1alpha: 0.020
  CD40: 0.064
  CD62E/E-Selectin: -0.080
  CD69: 0.239
  CD106/VCAM-1: 0.005
  CXCL8/IL-8: 0.133
  IL-1alpha: -0.065
  M-CSF: 0.054
  SRB: -0.016
  SRB-Mphg: 0.00054
  sIL-10: -0.061
[2]
  CCL2/MCP-1: -0.111
  CCL3/MIP-1alpha: -0.011
  CD40: 0.027
  CD62E/E-Selectin: -0.087
  CD69: 0.187
  CD106/VCAM-1: -0.0013
  CXCL8/IL-8: 0.008
  IL-1alpha: -0.048
  M-CSF: -0.024
  SRB: -0.010
  SRB-Mphg: -0.020
  sIL-10: -0.122
[3]
  CCL2/MCP-1: -0.109
  CCL3/MIP-1alpha: 0.015
  CD40: -0.002
  CD62E/E-Selectin: -0.108
  CD69: 0.181
  CD106/VCAM-1: 0.017
  CXCL8/IL-8: 0.014
  IL-1alpha: -0.049
  M-CSF: -0.028
  SRB: -0.00948
  SRB-Mphg: 0.00118
  sIL-10: -0.100
[4]
  CCL2/MCP-1: -0.054
  CCL3/MIP-1alpha: 0.000182
  CD40: -0.054
  CD62E/E-Selectin: -0.144
  CD69: 0.083
  CD106/VCAM-1: 0.0075
  CXCL8/IL-8: 0.000538
  IL-1alpha: -0.006
  M-CSF: -0.041
  SRB: -0.007
  SRB-Mphg: 0.004
  sIL-10: 0.023
[5]
  CCL2/MCP-1: -0.091
  CCL3/MIP-1alpha: -9.82e-5
  CD40: 0.039
  CD62E/E-Selectin: -0.094
  CD69: 0.200
  CD106/VCAM-1: 0.025
  CXCL8/IL-8: 0.043
  IL-1alpha: -0.044
  M-CSF: -0.021
  SRB: -0.013
  SRB-Mphg: 0.00473
  sIL-10: -0.159
[6]
  CCL2/MCP-1: -0.110
  CCL3/MIP-1alpha: -0.009
  CD40: -0.020
  CD62E/E-Selectin: -0.094
  CD69: 0.185
  CD106/VCAM-1: 0.027
  CXCL8/IL-8: 0.00143
  IL-1alpha: -0.030
  M-CSF: -0.017
  SRB: -0.005
  SRB-Mphg: -0.005
  sIL-10: -0.159
[7]
  CCL2/MCP-1: -0.089
  CCL3/MIP-1alpha: 0.015
  CD40: -0.055
  CD62E/E-Selectin: -0.120
  CD69: 0.131
  CD106/VCAM-1: -0.013
  CXCL8/IL-8: 0.037
  IL-1alpha: -0.015
  M-CSF: -0.025
  SRB: -0.00546
  SRB-Mphg: 0.005
  sIL-10: -0.021
[8]
  CCL2/MCP-1: -0.005
  CCL3/MIP-1alpha: -0.00218
  CD40: -0.087
  CD62E/E-Selectin: -0.111
  CD69: 0.012
  CD106/VCAM-1: 0.00354
  CXCL8/IL-8: -0.024
  IL-1alpha: 0.018
  M-CSF: -0.010
  SRB: 0.001
  SRB-Mphg: 0.011
  sIL-10: 0.038
/TH2, 1.00E4 nM
  CCL2/MCP-1: -0.115
  CCL26/Eotaxin-3: -0.131
  CD38: -0.035
  CD40: -0.240
  CD62E/E-Selectin: 0.049
  CD62P/P-selectin: -0.00467
  CD69: -0.006
  CD87/uPAR: -0.174
  CD106/VCAM-1: -0.004
  CXCL8/IL-8: -0.049
  CXCL9/MIG: -0.021
  Collagen IV: 0.028
  PBMC Cytotoxicity: -0.00277
  SRB: -0.174
  sIL-17A: 0.175
  sIL-17F: 0.137
/TH2, 1.11E3 nM
  CCL2/MCP-1: -0.084
  CCL26/Eotaxin-3: -0.167
  CD38: -0.006
  CD40: -0.166
  CD62E/E-Selectin: 0.083
  CD62P/P-selectin: -0.044
  CD69: 0.041
  CD87/uPAR: -0.190
  CD106/VCAM-1: 0.034
  CXCL8/IL-8: -0.084
  CXCL9/MIG: -0.034
  Collagen IV: -0.00538
  PBMC Cytotoxicity: -0.052
  SRB: -0.084
  sIL-17A: 0.045
  sIL-17F: 0.003
/TH2, 1.23E2 nM
  CCL2/MCP-1: -0.100
  CCL26/Eotaxin-3: -0.152
  CD38: -0.00143
  CD40: -0.162
  CD62E/E-Selectin: 0.078
  CD62P/P-selectin: -0.060
  CD69: 0.046
  CD87/uPAR: -0.227
  CD106/VCAM-1: 0.025
  CXCL8/IL-8: -0.055
  CXCL9/MIG: -0.030
  Collagen IV: -0.013
  PBMC Cytotoxicity: 0.007
  SRB: -0.061
  sIL-17A: 0.043
  sIL-17F: 0.061
/TH2, 1.37E1 nM
  CCL2/MCP-1: -0.029
  CCL26/Eotaxin-3: -0.152
  CD38: 0.015
  CD40: -0.156
  CD62E/E-Selectin: 0.024
  CD62P/P-selectin: -0.040
  CD69: 0.016
  CD87/uPAR: -0.193
  CD106/VCAM-1: 0.020
  CXCL8/IL-8: -0.050
  CXCL9/MIG: 0.013
  Collagen IV: 0.018
  PBMC Cytotoxicity: -0.060
  SRB: -0.037
  sIL-17A: -0.008
  sIL-17F: 0.096
/TH2, 3.33E3 nM
  CCL2/MCP-1: -0.125
